Data on 22 compounds can be found in US9067911B2, “Piperidine derivatives” (Hoffmann-La Roche Inc., priority 2009, dated 2015).

The assay addresses T1, mGlyT-1b (Mus musculus, UniProt P28571).
T1 construct: host or cells: Flp-in-CHO
T1 sequence (P28571 1-651 isoform P28571-2): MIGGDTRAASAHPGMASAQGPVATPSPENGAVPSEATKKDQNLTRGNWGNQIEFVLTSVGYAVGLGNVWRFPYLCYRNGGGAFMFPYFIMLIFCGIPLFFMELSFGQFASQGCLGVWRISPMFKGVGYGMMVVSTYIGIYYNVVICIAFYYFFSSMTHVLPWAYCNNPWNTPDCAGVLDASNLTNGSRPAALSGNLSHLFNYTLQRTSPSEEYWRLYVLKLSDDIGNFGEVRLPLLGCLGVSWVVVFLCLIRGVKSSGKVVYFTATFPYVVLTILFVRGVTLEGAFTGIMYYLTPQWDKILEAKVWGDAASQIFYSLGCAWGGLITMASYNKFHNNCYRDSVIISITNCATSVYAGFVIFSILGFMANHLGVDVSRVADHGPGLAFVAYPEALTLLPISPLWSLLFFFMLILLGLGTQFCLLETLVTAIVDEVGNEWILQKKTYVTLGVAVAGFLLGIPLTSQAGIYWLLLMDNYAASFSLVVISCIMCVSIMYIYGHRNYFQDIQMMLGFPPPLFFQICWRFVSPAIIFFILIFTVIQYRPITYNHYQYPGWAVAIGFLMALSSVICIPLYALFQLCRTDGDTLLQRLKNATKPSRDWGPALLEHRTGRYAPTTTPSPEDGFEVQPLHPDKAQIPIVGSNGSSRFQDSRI
Kind of assay: Glycine uptake inhibition assay (mGlyT-1b). The class given is cell-based. The note with it: [3H]-glycine uptake, Flp-in-CHO cells stably transfected with mGlyT1b cDNA, 20 min preincubation at 22° C. How it is done:
Nutrient mixture F-12 (Gibco Life-technologies), fetal bovine serum (FBS) 5%, (Gibco life technologies), Penicillin/Streptomycin 1% (Gibco life technologies), Hygromycin 0.6 mg/ml (Gibco life technologies), Glutamine 1 mM Gibco life technologies)
150 mM NaCl, 10 mM Hepes-Tris, pH 7.4, 1 mM CaCl2, 2.5 mM KCl, 2.5 mM MgSO4, 10 mM (+) D-glucose.
Flp-in™-CHO (Invitrogen Cat n° R758-07) cells stably transfected with mGlyT1b cDNA.
Glycine Uptake Inhibition Assay (mGlyT-1b)
On day 1 mammalian cells, (Flp-in™-CHO), transfected with mGlyT-1b cDNA, were plated at the density of 40,000 cells/well in complete F-12 medium, without hygromycin in 96-well culture plates. On day 2, the medium was aspirated and the cells were washed twice with uptake buffer (UB). The cells were then incubated for 20 min at 22° C. with either (i) no potential competitor, (ii) 10 mM non-radioactive glycine, (iii) a concentration of a potential inhibitor. A range of concentrations of the potential inhibitor was used to generate data for calculating the concentration of inhibitor resulting in 50% of the effect (e.g. IC50, the concentration of the competitor inhibiting glycine uptake of 50%). A solution was then immediately added containing [^3H]-glycine 60 nM (11-16 Ci/mmol) and 25 μM non-radioactive glycine. The plates were incubated with gentle shaking and the reaction was stopped by aspiration of the mixture and washing (three times) with ice-cold UB. The cells were lysed with scintillation liquid, shaken 3 hours and the radioactivity in the cells was counted using a scintillation counter.

SMILES strings stand for the structures. Structures can show the parent of a compound that is named as a salt.

One may read the IC50 as the concentration that inhibits the measured activity by half. `COc1cc(C(F)(F)F)cc(SC)c1C(=O)N[C@@]1(c2ccccc2)C[C@H](OC)CN(C)C1` (stereo in doubt) [Example 108, 2-Methoxy-N-((3R,5S) or (3S,5R)-5-methoxy-1-methyl-3-phenyl-piperidin-3-yl)-6-methylsulfanyl-4-trifluoromethyl-benzamide] gave an IC50 of 0.0409 µM.
As to `COc1cc(C(F)(F)F)cc(SC)c1C(=O)NC1(c2ccccc2)CCCN(C)C1C` (racemic) [Example 11, rac-N-(1,2-Dimethyl-3-phenyl-piperidin-3-yl)-2-methoxy-6-methylsulfanyl-4-trifluoromethyl-benzamide], 0.0202 µM corresponded to half-maximal inhibition (IC50).
Then `COc1cc(C(F)(F)F)cc(SC)c1C(=O)NC1(c2ccccc2)CC(F)CN(C)C1` (racemic) [Example 48, rac-N-(5-Fluoro-1-methyl-3-phenyl-piperidin-3-yl)-2-methoxy-6-methylsulfanyl-4-trifluoromethyl-benzamide], with 0.197 µM; and `COc1cc(C(F)(F)F)cc(SC)c1C(=O)NC1(c2ccccc2)CCC2(CC2)N(C)C1` (racemic) [Example 105, rac-2-Methoxy-N-(4-methyl-6-phenyl-4-aza-spiro[2.5]oct-6-yl)-6-methylsulfanyl-4-trifluoromethyl-benzamide], with 0.0293 µM.
Then `COc1cc(C(F)(F)F)cc(SC)c1C(=O)N[C@]1(c2ccccc2)CCCN(C)C1` (stereo in doubt) [Example 37, 2-Methoxy-N-((S)-1-methyl-3-phenyl-piperidin-3-yl)-6-methylsulfanyl-4-trifluoromethyl-benzamide hydrochloride], with 0.182 µM; and `COCO[C@@H]1CN(C)C[C@](NC(=O)c2c(OC)cc(C(F)(F)F)cc2SC)(c2ccccc2)C1` (racemic) [Example 86, 2-Methoxy-N-((3RS,5SR)-5-methoxymethoxy-1-methyl-3-phenyl-piperidin-3-yl)-6-methylsulfanyl-4-trifluoromethyl-benzamide], with 0.0715 µM; and `COc1cc(C(F)(F)F)cc(SC)c1C(=O)NC1(c2ccc(F)cc2Cl)CCCN(C)C1` (racemic) [Example 88, rac-N-[3-(2-Chloro-4-fluoro-phenyl)-1-methyl-piperidin-3-yl]-2-methoxy-6-methylsulfanyl-4-trifluoromethyl-benzamide], with 0.146 µM.
Then `COc1cc(C(F)(F)F)cc(SC)c1C(=O)N[C@@]1(c2ccccc2)CCCN(C)C1` (stereo in doubt) [Example 38, 2-Methoxy-N-((R)-1-methyl-3-phenyl-piperidin-3-yl)-6-methylsulfanyl-4-trifluoromethyl-benzamide hydrochloride], with 0.0101 µM.
With `CO[C@@H]1CN(C)C[C@](NC(=O)c2ccc(C(F)(F)F)cc2C2CC2)(c2ccccc2)C1` (racemic) [Example 76, 2-Cyclopropyl-N-((3RS,5SR)-5-methoxy-1-methyl-3-phenyl-piperidin-3-yl)-4-trifluoromethyl-benzamide], 0.0929 µM corresponded to half-maximal inhibition (IC50).
For the compound `C[C@@H]1CN(C)C[C@](NC(=O)c2ccc(C(F)(F)F)cc2C2CC2)(c2ccccc2)C1` (racemic) [Example 82, 2-Cyclopropyl-N-((3RS,5SR)-1,5-dimethyl-3-phenyl-piperidin-3-yl)-4-trifluoromethyl-benzamide hydrochloride], the IC50 was 0.0253 µM.
With `COc1cc(C(F)(F)F)cc(SC)c1C(=O)N[C@]1(c2ccccc2)C[C@@H](OC)CN(C)C1` (stereo in doubt) [Example 109, 2-Methoxy-N-((3S,5R) or (3R,5S)-5-methoxy-1-methyl-3-phenyl-piperidin-3-yl)-6-methylsulfanyl-4-trifluoromethyl-benzamide], the IC50 was 0.151 µM.
`COc1cc(C(F)(F)F)cc(SC)c1C(=O)NC1(c2cccc(Cl)c2)CCCN(C)C1` (racemic) [Example 45, rac-N-[3-(3-Chloro-phenyl)-1-methyl-piperidin-3-yl]-2-methoxy-6-methylsulfanyl-4-trifluoromethyl-benzamide hydrochloride] registered an IC50 of 0.0245 µM.
Take `CCc1cc(C(F)(F)F)ccc1C(=O)N[C@@]1(c2ccccc2)C[C@H](OC)CN(C)C1` (racemic) [Example 77, 2-Ethyl-N-((3RS,5SR)-5-methoxy-1-methyl-3-phenyl-piperidin-3-yl)-4-trifluoromethyl-benzamide]: the IC50 came to 0.0881 µM.
Then `COc1cc(C(F)(F)F)cc(SC)c1C(=O)NC1(c2ccccc2)CN(C)CC(C)(C)C1` (single isomer, unassigned) [Example 116, 2-Methoxy-6-methylsulfanyl-4-trifluoromethyl-N-((S or R)-1,5,5-trimethyl-3-phenyl-piperidin-3-yl)-benzamide], with 0.0358 µM.
In turn, `COc1cc(C(F)(F)F)cc(OC)c1C(=O)N[C@@]1(c2ccccc2)CCCN(C)C1` (racemic) [Example 128, 2,6-Dimethoxy-N-(R or (S)-1-methyl-3-phenyl-piperidin-3-yl)-4-trifluoromethyl-benzamide] displayed an IC50 of 0.126 µM.
Then `COc1cc(C(F)(F)F)cc(SC)c1C(=O)NC1(c2ccccc2)CC(O)CN(C)C1` (racemic) [Example 51, rac-N-(5-Hydroxy-1-methyl-3-phenyl-piperidin-3-yl)-2-methoxy-6-methylsulfanyl-4-trifluoromethyl-benzamide], with 0.0582 µM; and `CCc1cc(C(F)(F)F)ccc1C(=O)NC1(c2ccccc2)CCCN(C)C1` (single isomer, unassigned) [Example 115, 2-Ethyl-N-((R or S)-1-methyl-3-phenyl-piperidin-3-yl)-4-trifluoromethyl-benzamide hydrochloride], with 0.0259 µM.
The compound `COc1cc(C(F)(F)F)cc(Br)c1C(=O)NC1(c2ccccc2)CCCN(C)C1` (racemic) [Example 7, rac-2-Bromo-6-methoxy-N-(1-methyl-3-phenyl-piperidin-3-yl)-4-trifluoromethyl-benzamide] returned an IC50 of 0.0854 µM.
`CCc1cc(C(F)(F)F)ccc1C(=O)N[C@@]1(c2ccccc2)C[C@H](C)CN(C)C1` (racemic) [Example 124, N-((3R,5S) or (3S,5R)-1,5-Dimethyl-3-phenyl-piperidin-3-yl)-2-ethyl-4-trifluoromethyl-benzamide]: the midpoint of inhibition, the IC50, lay at 0.0127 µM.
With `CN1CCCC(NC(=O)c2ccc(C(F)(F)F)cc2OC(F)F)(c2ccccc2)C1` (racemic) [Example 39, rac-2-Difluoromethoxy-N-(1-methyl-3-phenyl-piperidin-3-yl)-4-trifluoromethyl-benzamide], half-maximal inhibition (IC50) required 0.184 µM.
Then `Cl.[2H]C([2H])([2H])N1CCC[C@@](NC(=O)c2c(OC)cc(C(F)(F)F)cc2SC)(c2ccccc2)C1` (single isomer, unassigned) [Example 63, [2H-methyl]-2-Methoxy-N—(R) or (S)-1-methyl-3-phenyl-piperidin-3-yl)-6-methylsulfanyl-4-trifluoromethyl-benzamide hydrochloride], with 0.01 µM; and `COc1cc(C(F)(F)F)cc(SC)c1C(=O)NC1(c2ccccc2)CCCN(C(C)C)C1` (racemic) [Example 55, rac-N-(1-Isopropyl-3-phenyl-piperidin-3-yl)-2-methoxy-6-methylsulfanyl-4-trifluoromethyl-benzamide; hydrochloride], with 0.0777 µM.
